Measurements from PMC11381307 (Frontiers in Pharmacology, 2024).

How the values were obtained:
[1] = molecular target: T1, OAT3 (Homo sapiens, UniProt Q8TCC7); assay: Transporter substrate study using HEK293-OAT3 cells
T1 sequence (Q8TCC7 1-542): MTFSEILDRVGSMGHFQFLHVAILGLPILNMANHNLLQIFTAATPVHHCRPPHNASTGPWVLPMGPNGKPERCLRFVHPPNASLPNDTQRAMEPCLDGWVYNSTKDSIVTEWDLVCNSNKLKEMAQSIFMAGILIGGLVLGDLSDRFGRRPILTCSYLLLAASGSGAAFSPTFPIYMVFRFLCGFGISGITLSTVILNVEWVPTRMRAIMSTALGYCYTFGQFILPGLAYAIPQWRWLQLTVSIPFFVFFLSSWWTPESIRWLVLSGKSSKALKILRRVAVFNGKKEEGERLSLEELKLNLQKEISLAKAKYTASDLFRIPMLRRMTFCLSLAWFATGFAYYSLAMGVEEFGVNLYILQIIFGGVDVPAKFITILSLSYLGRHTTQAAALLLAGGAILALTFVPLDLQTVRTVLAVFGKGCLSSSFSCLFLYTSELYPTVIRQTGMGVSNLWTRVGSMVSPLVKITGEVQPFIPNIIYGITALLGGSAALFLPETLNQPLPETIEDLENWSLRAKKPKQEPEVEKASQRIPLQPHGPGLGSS

[2] = molecular target: T2, OATP1B1 (Homo sapiens, UniProt Q9Y6L6); assay: Inhibitory effect of seven drugs on OATP1B1-mediated E217βG uptake; type: cell-based; details: 50 μM or 50 μg/mL; N = 2
T2 construct: host or cells: HEK293
T2 sequence (Q9Y6L6 1-691): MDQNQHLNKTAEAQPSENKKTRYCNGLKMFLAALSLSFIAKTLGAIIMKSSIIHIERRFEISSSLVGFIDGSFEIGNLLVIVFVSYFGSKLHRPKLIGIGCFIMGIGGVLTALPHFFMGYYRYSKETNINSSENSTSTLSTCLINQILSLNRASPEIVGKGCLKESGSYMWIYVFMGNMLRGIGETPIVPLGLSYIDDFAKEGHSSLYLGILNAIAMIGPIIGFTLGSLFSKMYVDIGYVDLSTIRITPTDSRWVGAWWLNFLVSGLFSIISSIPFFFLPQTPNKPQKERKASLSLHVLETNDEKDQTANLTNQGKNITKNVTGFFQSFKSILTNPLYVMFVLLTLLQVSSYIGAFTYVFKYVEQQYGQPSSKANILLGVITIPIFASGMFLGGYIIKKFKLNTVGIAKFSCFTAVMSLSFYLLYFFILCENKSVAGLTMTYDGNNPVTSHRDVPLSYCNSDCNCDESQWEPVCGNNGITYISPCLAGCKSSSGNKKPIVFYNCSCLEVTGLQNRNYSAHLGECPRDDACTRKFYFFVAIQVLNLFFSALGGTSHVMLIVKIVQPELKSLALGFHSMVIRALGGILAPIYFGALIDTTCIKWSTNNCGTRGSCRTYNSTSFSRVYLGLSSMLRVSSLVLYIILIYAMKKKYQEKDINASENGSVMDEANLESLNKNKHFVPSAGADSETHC
Procedure: (§1) Note: the peak area of probe substrate transported by MRP2, OAT3, OATP1B1 or OATP1B3 was determined by LC-MS method. Then, the relative uptake rate of probe substrate in the presence of seven drugs was calculated by using equation 7 or 11. When the relative uptake rate was decreased by more than 50%, indicating the potential inhibitory of drug on the transporter.

[3] = molecular target: T3, OATP1B3 (Homo sapiens, UniProt Q9NPD5); assay: Inhibitory effect of seven drugs on OATP1B3-mediated E217βG uptake; type: cell-based; details: 50 μM or 50 μg/mL; N = 2
T3 construct: host or cells: HEK293
T3 sequence (Q9NPD5 1-702): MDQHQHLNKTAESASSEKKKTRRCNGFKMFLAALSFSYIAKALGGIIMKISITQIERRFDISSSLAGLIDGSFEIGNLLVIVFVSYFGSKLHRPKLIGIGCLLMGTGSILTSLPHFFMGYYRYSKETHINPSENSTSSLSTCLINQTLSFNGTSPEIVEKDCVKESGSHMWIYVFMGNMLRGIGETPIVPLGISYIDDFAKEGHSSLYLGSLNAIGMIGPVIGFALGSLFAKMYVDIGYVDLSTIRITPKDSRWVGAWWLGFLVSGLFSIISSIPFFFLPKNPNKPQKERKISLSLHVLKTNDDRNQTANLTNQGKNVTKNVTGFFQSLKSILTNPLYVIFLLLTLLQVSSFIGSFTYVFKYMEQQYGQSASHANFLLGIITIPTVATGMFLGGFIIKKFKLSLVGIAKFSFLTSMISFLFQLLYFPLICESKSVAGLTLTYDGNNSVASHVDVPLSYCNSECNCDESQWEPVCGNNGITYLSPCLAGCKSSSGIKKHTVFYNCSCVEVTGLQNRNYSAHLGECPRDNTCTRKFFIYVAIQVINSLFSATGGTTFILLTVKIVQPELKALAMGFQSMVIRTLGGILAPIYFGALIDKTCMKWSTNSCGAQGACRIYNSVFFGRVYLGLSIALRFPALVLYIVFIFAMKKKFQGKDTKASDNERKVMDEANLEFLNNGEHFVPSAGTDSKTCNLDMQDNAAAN
Procedure: as §1

[4] = molecular target: T1, OAT3; assay: Inhibitory effect of seven drugs on OAT3-mediated ES uptake; type: cell-based; design: host or cells: HEK293; details: 50 μM or 50 μg/mL; N = 2
Procedure: as §1

[5] = molecular target: MRP2 (Homo sapiens, UniProt Q92887); assay: Inhibitory effect of seven drugs on MRP2-mediated E217βG uptake (vesicles); type: biochemical; design: purchased GenoMembrane (Tokyo, Japan) Product No. 0001; details: 50 μM or 50 μg/mL; N = 2
Chain of MRP2 (Q92887 whole entry): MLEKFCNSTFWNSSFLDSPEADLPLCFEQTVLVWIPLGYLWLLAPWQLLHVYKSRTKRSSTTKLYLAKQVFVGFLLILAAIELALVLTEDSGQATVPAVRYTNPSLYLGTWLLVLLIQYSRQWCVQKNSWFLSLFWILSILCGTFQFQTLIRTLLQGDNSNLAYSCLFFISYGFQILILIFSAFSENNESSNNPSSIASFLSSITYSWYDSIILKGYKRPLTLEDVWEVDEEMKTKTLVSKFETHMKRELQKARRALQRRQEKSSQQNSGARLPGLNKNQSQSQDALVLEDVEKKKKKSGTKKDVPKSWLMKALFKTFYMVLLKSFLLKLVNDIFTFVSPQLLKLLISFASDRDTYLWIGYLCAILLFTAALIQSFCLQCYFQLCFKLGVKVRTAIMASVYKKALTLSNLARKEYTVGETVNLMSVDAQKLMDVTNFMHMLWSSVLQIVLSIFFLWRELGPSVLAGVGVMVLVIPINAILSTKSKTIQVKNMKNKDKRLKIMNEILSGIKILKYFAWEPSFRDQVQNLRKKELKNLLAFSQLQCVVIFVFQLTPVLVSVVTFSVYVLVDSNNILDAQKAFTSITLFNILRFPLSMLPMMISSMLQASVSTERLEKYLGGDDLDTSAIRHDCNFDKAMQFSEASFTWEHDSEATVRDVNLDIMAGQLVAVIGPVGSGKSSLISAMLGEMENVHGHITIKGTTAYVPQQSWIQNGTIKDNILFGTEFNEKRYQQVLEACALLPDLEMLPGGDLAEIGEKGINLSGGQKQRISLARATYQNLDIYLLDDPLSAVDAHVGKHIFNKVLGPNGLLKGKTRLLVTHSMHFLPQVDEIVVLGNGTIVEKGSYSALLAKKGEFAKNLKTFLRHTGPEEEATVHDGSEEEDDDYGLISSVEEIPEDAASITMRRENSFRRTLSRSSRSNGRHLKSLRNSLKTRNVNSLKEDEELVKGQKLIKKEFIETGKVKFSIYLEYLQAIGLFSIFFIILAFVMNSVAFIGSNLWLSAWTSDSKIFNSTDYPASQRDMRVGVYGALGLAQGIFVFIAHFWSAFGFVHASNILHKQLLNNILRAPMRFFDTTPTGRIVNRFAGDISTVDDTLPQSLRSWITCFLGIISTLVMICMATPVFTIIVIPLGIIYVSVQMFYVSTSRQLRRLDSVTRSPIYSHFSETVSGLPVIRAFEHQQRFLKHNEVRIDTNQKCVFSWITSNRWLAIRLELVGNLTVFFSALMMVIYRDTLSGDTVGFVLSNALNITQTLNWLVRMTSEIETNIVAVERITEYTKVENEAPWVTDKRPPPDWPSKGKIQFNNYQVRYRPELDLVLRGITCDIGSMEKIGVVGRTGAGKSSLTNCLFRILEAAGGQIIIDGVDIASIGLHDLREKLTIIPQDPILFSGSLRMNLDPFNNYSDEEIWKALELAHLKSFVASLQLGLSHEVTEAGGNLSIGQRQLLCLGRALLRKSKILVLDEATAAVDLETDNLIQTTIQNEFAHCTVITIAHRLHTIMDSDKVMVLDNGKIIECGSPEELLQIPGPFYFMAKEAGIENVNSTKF
Procedure: Briefly, 10 μL of vesicle membranes and 5 μL of Reagent G were mixed and pre-incubated with 10 μL of the compounds or Buffer A2 (used as no compound-treatment control [NC]) at 37°C for 5 min. […] The two mixtures were mixed before the incubation and then incubated for an additional 5 min. […]
Regarding the inhibition assay, the methods used to calculate the transported activity and UR were similar to those used for the substrate assay. However, please refer to the SLC inhibition assay for the equations for calculating the UR percentages relative to the NC and IC50 values of compounds on MRP2 activity and MRP2-mediated MPAG transport.
as §1

Compound: C[C@]12CC[C@@H]3c4ccc(OS(=O)(=O)O)cc4CC[C@H]3[C@@H]1CCC2=O [ES, estrone-3-sulfate]
- uptake ratio (UR) of probe substrate mediated by OAT3 ([1]; after probenecid treatment): 3.26
- uptake ratio (UR) of probe substrate mediated by OAT3 ([1]; without inhibitor): 7.37

Compound: CCCN(CCC)S(=O)(=O)c1ccc(C(=O)O)cc1 [probenecid]
- reduction of OAT3-mediated MPAG uptake ([1]; 10 μM MPAG): 90.8%
- reduction of OAT3-mediated ES uptake ([1]; probe substrate ES): 69.4%

Compound: O=C(c1cc(Cc2n[nH]c(=O)c3ccccc23)ccc1F)N1CCN(C(=O)C2CC2)CC1 [Olaparib, olaparib]
- Relative net uptake rate (% of NC), Mean, OATP1B1-mediated E217βG uptake [2]: 99.3 % of NC
- Relative net uptake rate (% of NC), Mean, OATP1B3-mediated E217βG uptake [3]: 72.4 % of NC
- Relative net uptake rate (% of NC), Mean, OAT3-mediated ES uptake [4]: 70.2 % of NC
- Relative net uptake rate (% of NC), Mean, MRP2-mediated E217βG uptake [5]: 136 % of NC

Compound: C[C@@H](O)[C@H]1C(=O)N2C(C(=O)O)=C(S[C@@H]3CN[C@H](C(=O)N(C)C)C3)[C@H](C)[C@H]12 [Meropenem, meropenem]
- Relative net uptake rate (% of NC), Mean, OATP1B1-mediated E217βG uptake [2]: 95.9 % of NC
- Relative net uptake rate (% of NC), Mean, OATP1B3-mediated E217βG uptake [3]: 69.9 % of NC
- Relative net uptake rate (% of NC), Mean, OAT3-mediated ES uptake [4]: 26.6 % of NC
- Relative net uptake rate (% of NC), Mean, MRP2-mediated E217βG uptake [5]: 137 % of NC

Compound: CCN1CCN(C(=O)N[C@@H](C(=O)N[C@@H]2C(=O)N3C(C(=O)O)=C(CSc4nnnn4C)CS[C@H]23)c2ccc(O)cc2)C(=O)C1=O [Cefoperzone, cefoperazone]
- Relative net uptake rate (% of NC), Mean, OATP1B1-mediated E217βG uptake [2]: 168 % of NC
- Relative net uptake rate (% of NC), Mean, OATP1B3-mediated E217βG uptake [3]: 67.5 % of NC
- Relative net uptake rate (% of NC), Mean, MRP2-mediated E217βG uptake [5]: 104 % of NC
